Data taken from patent US20240417397A1 (priority 2021, published 2024).

System: Rice blast fungi (Pyricularia oryzae, MAFF101511)
Test: microbe, parasite or virus in culture
Assay type: cell-based
Conditions: 72 h, read-out: Inhibition rate (%) of elongation length of fungal filaments

SMILES | inhibition at 500 ppm
COc1n[nH]c(N2CCC(OC)CC2)c1C(F)(F)F [Example 9, 3-methoxy-5-(4-methoxypiperidin-1-yl)-4-trifluoromethyl-1H-pyrazole] | 88%
COc1n[nH]c(F)c1C(F)(F)F [Example 2, 3-fluoro-5-methoxy-4-trifluoromethylpyrazole] | 95%
